Measured values as given in ChEMBL document CHEMBL3259571, “Diacylglycerol lactones targeting the structural features that distinguish the atypical C1 domains of protein kinase C ζ and ι from typical C1 domains” (J Med Chem, 2014).

Species on record: Mus musculus
Test: Selectivity ratio of Ki for GST-tagged mouse PKC-delta C1B domain N7R mutant to Kd for GST-tagged full-length mouse PKC-delta C1B domain

Selectivity ratio	Compound
0.9	CC(C)CC(CC(=O)OCC1(CO)C/C(=C\c2ccccc2C(C(=O)OC(C)(C)C)C(=O)OC(C)(C)C)C(=O)O1)CC(C)C (stereo unspecified)
0.67	CC(C)C(CC(=O)OCC1(CO)C/C(=C\c2ccc(O)cc2)C(=O)O1)C(C)C (stereo unspecified)
1.2	CC(C)CC(CC(=O)OCC1(CO)C/C(=C\c2cccc(C(C(=O)OC(C)(C)C)C(=O)OC(C)(C)C)c2)C(=O)O1)CC(C)C (stereo unspecified)
1.25	CC(C)CC(CC(=O)OCC1(CO)C/C(=C\c2ccc(C(=O)O)cc2)C(=O)O1)CC(C)C (stereo unspecified)

Test system: not listed separately
Test: Displacement of [20-3H]PDBu from GST-tagged mouse PKC-delta C1B domain N7R mutant expressed in Escherichia coli after 2 to 30 mins by polyethylene glycol precipitation assay in presence of phosphatidylserine

Compound	Ki
CC(C)CC(CC(=O)OCC1(CO)C/C(=C\c2ccccc2C(C(=O)OC(C)(C)C)C(=O)OC(C)(C)C)C(=O)O1)CC(C)C (stereo unspecified)	0.9 nM
CC(C)C(CC(=O)OCC1(CO)C/C(=C\c2ccc(O)cc2)C(=O)O1)C(C)C (stereo unspecified)	1.99 nM
CC(C)CC(CC(=O)OCC1(CO)C/C(=C\c2cccc(C(C(=O)OC(C)(C)C)C(=O)OC(C)(C)C)c2)C(=O)O1)CC(C)C (stereo unspecified)	0.6 nM
CC(C)CC(CC(=O)OCC1(CO)C/C(=C\c2ccc(C(=O)O)cc2)C(=O)O1)CC(C)C (stereo unspecified)	120 nM

Species on record: Mus musculus
Test: Selectivity ratio of Ki for GST-tagged mouse PKC-delta C1B domain S10R mutant to Kd for GST-tagged full-length mouse PKC-delta C1B domain

Selectivity ratio	Compound
1.5	CC(C)CC(CC(=O)OCC1(CO)C/C(=C\c2ccccc2C(C(=O)OC(C)(C)C)C(=O)OC(C)(C)C)C(=O)O1)CC(C)C (stereo unspecified)
0.4	CC(C)C(CC(=O)OCC1(CO)C/C(=C\c2ccc(O)cc2)C(=O)O1)C(C)C (stereo unspecified)
1.2	CC(C)CC(CC(=O)OCC1(CO)C/C(=C\c2cccc(C(C(=O)OC(C)(C)C)C(=O)OC(C)(C)C)c2)C(=O)O1)CC(C)C (stereo unspecified)
0.98	CC(C)CC(CC(=O)OCC1(CO)C/C(=C\c2ccc(C(=O)O)cc2)C(=O)O1)CC(C)C (stereo unspecified)

Biological target: Protein kinase C delta type (Mus musculus, UniProt P28867)
Sequence (P28867 whole entry, the tested form may be a part): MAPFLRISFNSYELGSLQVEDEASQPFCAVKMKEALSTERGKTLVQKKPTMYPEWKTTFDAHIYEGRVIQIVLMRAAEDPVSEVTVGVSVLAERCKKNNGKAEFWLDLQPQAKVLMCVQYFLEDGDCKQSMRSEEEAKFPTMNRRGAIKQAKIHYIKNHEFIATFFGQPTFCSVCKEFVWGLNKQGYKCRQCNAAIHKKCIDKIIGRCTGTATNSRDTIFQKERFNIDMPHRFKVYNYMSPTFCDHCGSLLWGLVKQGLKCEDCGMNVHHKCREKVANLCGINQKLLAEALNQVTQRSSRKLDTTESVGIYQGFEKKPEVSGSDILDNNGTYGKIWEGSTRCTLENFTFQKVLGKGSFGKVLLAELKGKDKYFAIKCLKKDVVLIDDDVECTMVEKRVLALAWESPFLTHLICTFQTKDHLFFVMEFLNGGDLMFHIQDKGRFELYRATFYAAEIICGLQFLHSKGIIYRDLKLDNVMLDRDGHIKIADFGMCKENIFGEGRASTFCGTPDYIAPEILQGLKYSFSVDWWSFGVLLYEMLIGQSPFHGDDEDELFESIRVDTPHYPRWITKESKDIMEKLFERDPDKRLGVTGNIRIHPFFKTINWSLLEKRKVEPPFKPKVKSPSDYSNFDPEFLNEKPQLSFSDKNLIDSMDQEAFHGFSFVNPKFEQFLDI
Test: Displacement of [20-3H]PDBu from GST-tagged full-length mouse PKC-delta C1B domain expressed in Escherichia coli after 2 to 30 mins by polyethylene glycol precipitation assay in presence of phosphatidylserine

Kd	Compound
1 nM	CC(C)CC(CC(=O)OCC1(CO)C/C(=C\c2ccccc2C(C(=O)OC(C)(C)C)C(=O)OC(C)(C)C)C(=O)O1)CC(C)C (stereo unspecified)
2.95 nM	CC(C)C(CC(=O)OCC1(CO)C/C(=C\c2ccc(O)cc2)C(=O)O1)C(C)C (stereo unspecified)
0.5 nM	CC(C)CC(CC(=O)OCC1(CO)C/C(=C\c2cccc(C(C(=O)OC(C)(C)C)C(=O)OC(C)(C)C)c2)C(=O)O1)CC(C)C (stereo unspecified)
96 nM	CC(C)CC(CC(=O)OCC1(CO)C/C(=C\c2ccc(C(=O)O)cc2)C(=O)O1)CC(C)C (stereo unspecified)

Species on record: Mus musculus
Test: Selectivity ratio of Ki for GST-tagged mouse PKC-delta C1B domain P11R mutant to Kd for GST-tagged full-length mouse PKC-delta C1B domain

Selectivity ratio	Compound
1.7	CC(C)CC(CC(=O)OCC1(CO)C/C(=C\c2ccccc2C(C(=O)OC(C)(C)C)C(=O)OC(C)(C)C)C(=O)O1)CC(C)C (stereo unspecified)
0.5	CC(C)C(CC(=O)OCC1(CO)C/C(=C\c2ccc(O)cc2)C(=O)O1)C(C)C (stereo unspecified)
2	CC(C)CC(CC(=O)OCC1(CO)C/C(=C\c2cccc(C(C(=O)OC(C)(C)C)C(=O)OC(C)(C)C)c2)C(=O)O1)CC(C)C (stereo unspecified)
1.25	CC(C)CC(CC(=O)OCC1(CO)C/C(=C\c2ccc(C(=O)O)cc2)C(=O)O1)CC(C)C (stereo unspecified)

Species on record: Mus musculus
Test: Selectivity ratio of Ki for GST-tagged mouse PKC-delta C1B domain L20R mutant to Kd for GST-tagged full-length mouse PKC-delta C1B domain

Selectivity ratio	Compound
17.3	CC(C)CC(CC(=O)OCC1(CO)C/C(=C\c2ccccc2C(C(=O)OC(C)(C)C)C(=O)OC(C)(C)C)C(=O)O1)CC(C)C (stereo unspecified)
3.2	CC(C)C(CC(=O)OCC1(CO)C/C(=C\c2ccc(O)cc2)C(=O)O1)C(C)C (stereo unspecified)
17.6	CC(C)CC(CC(=O)OCC1(CO)C/C(=C\c2cccc(C(C(=O)OC(C)(C)C)C(=O)OC(C)(C)C)c2)C(=O)O1)CC(C)C (stereo unspecified)
7.7	CC(C)CC(CC(=O)OCC1(CO)C/C(=C\c2ccc(C(=O)O)cc2)C(=O)O1)CC(C)C (stereo unspecified)

Test system: not listed separately
Test: Displacement of [20-3H]PDBu from GST-tagged mouse PKC-delta C1B domain S10R mutant expressed in Escherichia coli after 2 to 30 mins by polyethylene glycol precipitation assay in presence of phosphatidylserine

Compound	Ki
CC(C)CC(CC(=O)OCC1(CO)C/C(=C\c2ccccc2C(C(=O)OC(C)(C)C)C(=O)OC(C)(C)C)C(=O)O1)CC(C)C (stereo unspecified)	1.5 nM
CC(C)C(CC(=O)OCC1(CO)C/C(=C\c2ccc(O)cc2)C(=O)O1)C(C)C (stereo unspecified)	1.18 nM
CC(C)CC(CC(=O)OCC1(CO)C/C(=C\c2cccc(C(C(=O)OC(C)(C)C)C(=O)OC(C)(C)C)c2)C(=O)O1)CC(C)C (stereo unspecified)	0.6 nM
CC(C)CC(CC(=O)OCC1(CO)C/C(=C\c2ccc(C(=O)O)cc2)C(=O)O1)CC(C)C (stereo unspecified)	94 nM

Test system: not listed separately
Test: Displacement of [20-3H]PDBu from GST-tagged mouse PKC-delta C1B domain L20R mutant expressed in Escherichia coli after 2 to 30 mins by polyethylene glycol precipitation assay in presence of phosphatidylserine

Compound	Ki
CC(C)CC(CC(=O)OCC1(CO)C/C(=C\c2ccccc2C(C(=O)OC(C)(C)C)C(=O)OC(C)(C)C)C(=O)O1)CC(C)C (stereo unspecified)	17.3 nM
CC(C)C(CC(=O)OCC1(CO)C/C(=C\c2ccc(O)cc2)C(=O)O1)C(C)C (stereo unspecified)	9.4 nM
CC(C)CC(CC(=O)OCC1(CO)C/C(=C\c2cccc(C(C(=O)OC(C)(C)C)C(=O)OC(C)(C)C)c2)C(=O)O1)CC(C)C (stereo unspecified)	8.8 nM
CC(C)CC(CC(=O)OCC1(CO)C/C(=C\c2ccc(C(=O)O)cc2)C(=O)O1)CC(C)C (stereo unspecified)	739 nM

Test system: not listed separately
Test: Displacement of [20-3H]PDBu from GST-tagged mouse PKC-delta C1B domain P11R mutant expressed in Escherichia coli after 2 to 30 mins by polyethylene glycol precipitation assay in presence of phosphatidylserine

Compound	Ki
CC(C)CC(CC(=O)OCC1(CO)C/C(=C\c2ccccc2C(C(=O)OC(C)(C)C)C(=O)OC(C)(C)C)C(=O)O1)CC(C)C (stereo unspecified)	1.7 nM
CC(C)C(CC(=O)OCC1(CO)C/C(=C\c2ccc(O)cc2)C(=O)O1)C(C)C (stereo unspecified)	1.48 nM
CC(C)CC(CC(=O)OCC1(CO)C/C(=C\c2cccc(C(C(=O)OC(C)(C)C)C(=O)OC(C)(C)C)c2)C(=O)O1)CC(C)C (stereo unspecified)	1 nM
CC(C)CC(CC(=O)OCC1(CO)C/C(=C\c2ccc(C(=O)O)cc2)C(=O)O1)CC(C)C (stereo unspecified)	120 nM
